The record followed here is PubChem BioAssay AID256 (DTP/NCI, 2004).

Several values for one entry are separate records, joined by “and”; a condition that tells them apart may be missing. Equal values may be shown once. Toxic doses and inconclusive results are not listed.

For this experiment, the system named is CD2F1 mice, L1210 leukemia ip, survival T/C. Kind of experiment: NCI In Vivo Anticancer Drug Screen. Data for tumor model L1210 Leukemia (intraperitoneal) in CD2F1 (CDF1) mice. Particulars: endpoint: mean survival time, higher = longer survival. The method in brief: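 Antitumor effect is scored in animals hosting a serially transplanted tumor. Values compare compound-dosed animals against vehicle-only controls as a simple quotient.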

Setting [1] is: dose: 100.0 mg/kg/injection, schedule: Q01DX001 (ip), vehicle: saline.
The mark [2] stands for this setting: dose: 200.0 mg/kg/injection, schedule: Q01DX001 (ip), vehicle: saline.
Where [3] appears, read: dose: 400.0 mg/kg/injection, schedule: Q01DX001 (ip), vehicle: saline.
[4] abbreviates: dose: 100.0 mg/kg/injection, schedule: Q04DX003 (ip), vehicle: saline with Tween-80.
[5] abbreviates: dose: 200.0 mg/kg/injection, schedule: Q04DX003 (ip), vehicle: saline with Tween-80.
Where [6] appears, read: dose: 400.0 mg/kg/injection, schedule: Q04DX003 (ip), vehicle: saline with Tween-80.
The mark [7] stands for this setting: dose: 100.0 mg/kg/injection, schedule: Q01DX001 (ip), vehicle: saline with Tween-80.
Setting [8] is: dose: 100.0 mg/kg/injection, schedule: Q04DX003 (ip), vehicle: saline.
Setting [9] is: dose: 200.0 mg/kg/injection, schedule: Q04DX003 (ip), vehicle: saline.
Where [10] appears, read: dose: 100.0 mg/kg/injection, schedule: Q01DX009 (ip), vehicle: Klucel (hydroxypropylcellulose) (HPC).
Where [11] appears, read: dose: 200.0 mg/kg/injection, schedule: Q01DX009 (ip), vehicle: Klucel (hydroxypropylcellulose) (HPC).
Setting [12] is: dose: 100.0 mg/kg/injection, schedule: Q01DX009 (ip), vehicle: saline with Tween-80.
The mark [13] stands for this setting: dose: 200.0 mg/kg/injection, schedule: Q01DX009 (ip), vehicle: saline with Tween-80.

`O=c1cnn(C2OC(CO)C(O)C2O)c(=O)[nH]1` (stereo not given): the T/C was 119 % of control (dose: 12.5 mg/kg/injection, schedule: Q03HX024 (ip), vehicle: saline); 115 % of control and 120 % of control (dose: 50.0 mg/kg/injection, schedule: Q01DX005 (ip), vehicle: water); 91 % of control (dose: 50.0 mg/kg/injection, schedule: Q03HX024 (ip), vehicle: saline); 105 % of control under setting [1]; 117 % of control and 121 % of control and 106 % of control (dose: 100.0 mg/kg/injection, schedule: Q01DX005 (ip), vehicle: water); 119 % of control (dose: 100.0 mg/kg/injection, schedule: Q01DX009 (ip), vehicle: distilled water + Tween-80). Moreover, the T/C (dose: 100.0 mg/kg/injection, schedule: Q01DX009 (ip), vehicle: saline) is 122 % of control; the T/C (dose: 143.0 mg/kg/injection, schedule: Q03HX016 (ip), vehicle: other) was 122 % of control; the T/C under setting [2] is 101 % of control; the T/C (dose: 200.0 mg/kg/injection, schedule: Q01DX005 (ip), vehicle: water) was 121 % of control and 123 % of control and 108 % of control; the T/C (dose: 200.0 mg/kg/injection, schedule: Q01DX009 (ip), vehicle: saline) was 86 % of control; the T/C (dose: 300.0 mg/kg/injection, schedule: Q03HX024 (ip), vehicle: other) is 151 % of control. In addition, the T/C runs as follows: under setting [3], 108 % of control; (dose: 400.0 mg/kg/injection, schedule: Q01DX005 (ip), vehicle: water) 116 % of control; (dose: 400.0 mg/kg/injection, schedule: Q01DX009 (ip), vehicle: saline) 94 % of control; (dose: 500.0 mg/kg/injection, schedule: Q03HX016 (ip), vehicle: other) 152 % of control; (dose: 500.0 mg/kg/injection, schedule: Q03HX024 (ip), vehicle: other) 181 % of control; (dose: 800.0 mg/kg/injection, schedule: Q01DX001 (ip), vehicle: saline) 110 % of control. Further, the T/C (dose: 800.0 mg/kg/injection, schedule: Q01DX005 (ip), vehicle: water) is 110 % of control; the T/C (dose: 800.0 mg/kg/injection, schedule: Q01DX009 (ip), vehicle: distilled water + Tween-80) is 154 % of control; the T/C (dose: 1000.0 mg/kg/injection, schedule: Q03HX016 (ip), vehicle: other) is 152 % of control; the T/C (dose: 1000.0 mg/kg/injection, schedule: Q03HX024 (ip), vehicle: other) is 167 % of control; the T/C (dose: 1600.0 mg/kg/injection, schedule: Q01DX009 (ip), vehicle: distilled water + Tween-80) was 160 % of control; the T/C (dose: 1600.0 mg/kg/injection, schedule: Q01DX009 (ip), vehicle: saline) is 121 % of control.

On to `Clc1c(Cl)c(CBr)c(Cl)c(-c2c(Cl)c(Cl)c(Cl)c(CBr)c2Cl)c1Cl`, for which the T/C by setting is: under setting [4], 93 % of control; under setting [5], 107 % of control; under setting [6], 104 % of control.

As for `Cn1cccnc1=O`, the T/C (dose: 100.0 mg/kg/injection, schedule: Q04DX002 (ip), vehicle: saline) was 106 % of control; the T/C (dose: 200.0 mg/kg/injection, schedule: Q04DX002 (ip), vehicle: saline) is 95 % of control; the T/C (dose: 400.0 mg/kg/injection, schedule: Q04DX002 (ip), vehicle: saline) is 106 % of control.

As to `Cc1cccc(NC(=O)COc2ccc(Cl)cc2C)c1`, the T/C runs as follows: (dose: 100.0 mg/kg/injection, schedule: Q04DX002 (ip), vehicle: saline with Tween-80) 110 % of control; (dose: 200.0 mg/kg/injection, schedule: Q04DX002 (ip), vehicle: saline with Tween-80) 94 % of control; (dose: 400.0 mg/kg/injection, schedule: Q04DX002 (ip), vehicle: saline with Tween-80) 98 % of control.

Regarding `CCCCCCC(C(=O)OCC)P(=O)(OCC)OCC` (stereo not given), the T/C (dose: 18.75 mg/kg/injection, schedule: Q01DX009 (ip), vehicle: saline with Tween-80) is 98 % of control; the T/C (dose: 37.5 mg/kg/injection, schedule: Q01DX009 (ip), vehicle: saline with Tween-80) is 96 % of control; the T/C (dose: 75.0 mg/kg/injection, schedule: Q01DX009 (ip), vehicle: saline with Tween-80) was 96 % of control; the T/C (dose: 75.0 mg/kg/injection, schedule: Q04DX003 (ip), vehicle: saline with Tween-80) is 95 % of control.

For `N#CC(C#N)=C1CCN2CCCc3cccc1c32`, the T/C runs as follows: under setting [7], 100 % of control; (dose: 200.0 mg/kg/injection, schedule: Q01DX001 (ip), vehicle: saline with Tween-80) 95 % of control; (dose: 400.0 mg/kg/injection, schedule: Q01DX001 (ip), vehicle: saline with Tween-80) 111 % of control.

In the case of `OC(CN1CCCCC1)c1ccncc1` (stereo not given), the T/C is 95 % of control (dose: 75.0 mg/kg/injection, schedule: Q01DX001 (ip), vehicle: saline); 95 % of control (dose: 150.0 mg/kg/injection, schedule: Q01DX001 (ip), vehicle: saline); 95 % of control (dose: 300.0 mg/kg/injection, schedule: Q01DX001 (ip), vehicle: saline).

Take `Cn1ncc(C(=O)O)c1[N+](=O)[O-]`: the T/C is 102 % of control under setting [1], 103 % of control under setting [2] and 94 % of control under setting [3].

With `CC(C)(C)N1CCC1C(O)c1ccccc1` (stereo not given), the T/C was 100 % of control (dose: 25.0 mg/kg/injection, schedule: Q04DX003 (ip), vehicle: saline with Tween-80); 102 % of control (dose: 50.0 mg/kg/injection, schedule: Q04DX003 (ip), vehicle: saline with Tween-80); 98 % of control under setting [7]; 95 % of control under setting [4].

Take `NCC(=O)Nc1ccc(Cl)cc1C(=O)c1ccc[nH]1`: the T/C was 89 % of control under setting [1]; 94 % of control under setting [8]; 89 % of control under setting [2]; 94 % of control under setting [9]; 92 % of control under setting [3]; 96 % of control (dose: 400.0 mg/kg/injection, schedule: Q04DX003 (ip), vehicle: saline).

Regarding `CC(=O)Nc1ccc(S(=O)(=O)/N=S(\C)c2ccc(C)cc2)cc1` (stereo not given), the T/C is 95 % of control under setting [10]; 89 % of control under setting [11]; 91 % of control (dose: 400.0 mg/kg/injection, schedule: Q01DX009 (ip), vehicle: Klucel (hydroxypropylcellulose) (HPC)); 92 % of control (dose: 600.0 mg/kg/injection, schedule: Q01DX009 (ip), vehicle: Klucel (hydroxypropylcellulose) (HPC)).

Regarding `COc1ccc2c(oc(=O)c3c(Cl)nc(C)c(C)c32)c1OC`, the T/C reads like this: (dose: 25.0 mg/kg/injection, schedule: Q01DX009 (ip), vehicle: Klucel (hydroxypropylcellulose) (HPC)) 102 % of control; (dose: 50.0 mg/kg/injection, schedule: Q01DX009 (ip), vehicle: Klucel (hydroxypropylcellulose) (HPC)) 95 % of control; under setting [10], 93 % of control; under setting [11], 93 % of control.

In the case of `C1=CC(=C(C2CCC(Nc3ccccc3)CC2)C2CCC(Nc3ccccc3)CC2)C=CC1=Nc1ccccc1` (stereo not given), the T/C (dose: 50.0 mg/kg/injection, schedule: Q01DX009 (ip), vehicle: saline with Tween-80) was 103 % of control; the T/C under setting [12] was 101 % of control; the T/C under setting [8] was 104 % of control; the T/C under setting [13] is 107 % of control; the T/C under setting [9] was 104 % of control.

Turning to `CC(C)=C(CO)CCC(C)C`, the T/C was 100 % of control under setting [4] and 103 % of control under setting [5].

Regarding `NC(=O)CC(NC(=O)OCc1ccccc1)C(=O)O` (stereo not given), the T/C reads like this: under setting [4], 95 % of control; under setting [5], 101 % of control; under setting [6], 93 % of control.

As for `CCOC(=O)c1ccc(OC(=O)Nc2ccccc2OC)cc1`, the T/C was 96 % of control under setting [12]; 103 % of control under setting [4]; 92 % of control under setting [13]; 100 % of control under setting [5]; 94 % of control (dose: 400.0 mg/kg/injection, schedule: Q01DX009 (ip), vehicle: saline with Tween-80); 102 % of control under setting [6].
